# Measured values taken from patent US11103510B2, “JAK1 pathway inhibitors for the treatment of cytokine-related disorders” (Incyte Corporation, priority 2018, dated 2021).
# How the values were obtained:
# [1] = target: human JAK1 (a.a. 837-1142) (Homo sapiens, UniProt P23458); assay: In vitro JAK kinase assay (HTRF), JAK1; format: biochemical; conditions: 1 mM ATP
# Experimental: (§1) The catalytic activity of JAK1, JAK2 or JAK3 was assayed by measuring the phosphorylation of a biotinylated peptide. The phosphorylated peptide was detected by homogenous time resolved fluorescence (HTRF). […] Reactions are carried out at room temperature for 1 hour and then stopped with 20 μL 45 mM EDTA, 300 nM SA-APC, 6 nM Eu-Py20 in assay buffer (Perkin Elmer, Boston, Mass.). Binding to the Europium labeled antibody takes place for 40 minutes and HTRF signal was measured on a Fusion plate reader (Perkin Elmer, Boston, Mass.).
# [2] = target: human JAK2 (a.a. 828-1132) (Homo sapiens (Human), UniProt O60674); assay: In vitro JAK kinase assay (HTRF), JAK2, for JAK2/JAK1 ratio; format: biochemical; conditions: IC50 ratio, 1 mM ATP
# Sequence of human JAK2 (a.a. 828-1132) (O60674 828-1132): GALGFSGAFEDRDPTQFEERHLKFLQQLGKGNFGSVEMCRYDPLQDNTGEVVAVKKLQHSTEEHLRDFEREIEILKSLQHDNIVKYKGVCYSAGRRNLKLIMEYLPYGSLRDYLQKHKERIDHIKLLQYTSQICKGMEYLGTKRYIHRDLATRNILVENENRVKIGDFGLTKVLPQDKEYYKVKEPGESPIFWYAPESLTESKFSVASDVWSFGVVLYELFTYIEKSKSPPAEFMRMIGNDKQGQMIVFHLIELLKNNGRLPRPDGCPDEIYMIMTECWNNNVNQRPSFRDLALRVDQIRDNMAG
# Experimental: as §1
Compound,IC50 [1],JAK2/JAK1 [2]
"N#CCC(C1CCN(c2cccc(Cl)n2)C1)n1cc(-c2ncnc3[nH]ccc23)cn1 (single isomer, unassigned) [Compound 6, 3-[1-(6-chloropyridin-2-yl)pyrrolidin-3-yl]-3-[4-(7H-pyrrolo[2,3-d]pyrimidin-4-yl)-1H-pyrazol-1-yl]propanenitrile]",< 0.01 µM,>10
"N#CCC1(n2cc(-c3ncnc4[nH]ccc34)cn2)CN(C2CCN(C(=O)Nc3ccc(F)cc3C(F)(F)F)CC2)C1 [Compound 2, 4-{3-(Cyanomethyl)-3-[4-(7H-pyrrolo[2,3-d]pyrimidin-4-yl)-1H-pyrazol-1-yl]azetidin-1-yl}-N-[4-fluoro-2-(trifluoromethyl)phenyl]piperidine-1-carboxamide]",< 0.01 µM,>10
"N#CCC1(n2cc(-c3ncnc4[nH]ccc34)cn2)CN(C2CCN(C(=O)c3ccnc(C(F)(F)F)n3)CC2)C1 [Compound 3, [3-[4-(7H-pyrrolo[2,3-d]pyrimidin-4-yl)-1H-pyrazol-1-yl]-1-(1-{[2-(trifluoromethyl)pyrimidin-4-yl]carbonyl}piperidin-4-yl)azetidin-3-yl]acetonitrile]",< 0.01 µM,>10
"C[C@@H](O)c1nc2cnc3ccsc3c2n1[C@H]1CC[C@H](CC#N)OC1 [Compound 5, ((2R,5S)-5-{2-[(1R)-1-hydroxyethyl]-1H-imidazo[4,5-d]thieno[3,2-b]pyridin-1-yl}tetrahydro-2H-pyran-2-yl)acetonitrile]",< 0.1 µM,>10
"N#CCC(C1CCN(c2nc3cccnc3o2)C1)n1cc(-c2ncnc3[nH]ccc23)cn1 (stereo not drawn) [Compound 7, 3-(1-[1,3]oxazolo[5,4-b]pyridin-2-ylpyrrolidin-3-yl)-3-[4-(7H-pyrrolo[2,3-d]pyrimidin-4-yl)-1H-pyrazol-1-yl]propanenitrile]",< 0.01 µM,>10
"N#CCC(CN1CCN(C(=O)c2ccc(C#N)cc2F)CC1)n1cc(-c2ncnc3[nH]ccc23)cn1 (stereo not drawn) [Compound 8, 4-[(4-{3-cyano-2-[4-(7H-pyrrolo[2,3-d]pyrimidin-4-yl)-1H-pyrazol-1-yl]propyl}piperazin-1-yl)carbonyl]-3-fluorobenzonitrile]",< 0.01 µM,>10
"N#CCC(CN1CCN(C(=O)c2ccc(C#N)cc2F)CC1)n1ccc(-c2ncnc3[nH]ccc23)c1 (stereo not drawn) [Compound 9, 4-[(4-{3-cyano-2-[3-(7H-pyrrolo[2,3-d]pyrimidin-4-yl)-1H-pyrrol-1-yl]propyl}piperazin-1-yl)carbonyl]-3-fluorobenzonitrile]",< 0.01 µM,>10
"N#CC[C@]1(n2cc(-c3ncnc4[nH]ccc34)cn2)C[C@H](N2CCN(C(=O)c3ccnc(C(F)(F)F)n3)CC2)C1 [Compound 10, [trans-1-[4-(7H-pyrrolo[2,3-d]pyrimidin-4-yl)-1H-pyrazol-1-yl]-3-(4-{[2-(trifluoromethyl)pyrimidin-4-yl]carbonyl}piperazin-1-yl)cyclobutyl]acetonitrile]",< 0.01 µM,>10
"N#CC[C@]1(n2cc(-c3ncnc4[nH]ccc34)cn2)C[C@H](N2CCC(Oc3cc(CN4CC(O)C4)cc(C(F)(F)F)n3)CC2)C1 [Compound 11, {trans-3-(4-{[4-[(3-hydroxyazetidin-1-yl)methyl]-6-(trifluoromethyl)pyridin-2-yl]oxy}piperidin-1-yl)-1-[4-(7H-pyrrolo[2,3-d]pyrimidin-4-yl)-1H-pyrazol-1-yl]cyclobutyl}acetonitrile]",< 0.01 µM,>10
"N#CC[C@]1(n2cc(-c3ncnc4[nH]ccc34)cn2)C[C@H](N2CCC(Oc3cc(CN4CCC[C@H]4CO)cc(C(F)(F)F)n3)CC2)C1 [Compound 12, {trans-3-(4-{[4-{[(2S)-2-(hydroxymethyl)pyrrolidin-1-yl]methyl}-6-(trifluoromethyl)pyridin-2-yl]oxy}piperidin-1-yl)-1-[4-(7H-pyrrolo[2,3-d]pyrimidin-4-yl)-1H-pyrazol-1-yl]cyclobutyl}acetonitrile]",< 0.01 µM,>10
"N#CC[C@]1(n2cc(-c3ncnc4[nH]ccc34)cn2)C[C@H](N2CCC(Oc3cc(CN4CCC[C@@H]4CO)cc(C(F)(F)F)n3)CC2)C1 [Compound 13, {trans-3-(4-{[4-{[(2R)-2-(hydroxymethyl)pyrrolidin-1-yl]methyl}-6-(trifluoromethyl)pyridin-2-yl]oxy}piperidin-1-yl)-1-[4-(7H-pyrrolo[2,3-d]pyrimidin-4-yl)-1H-pyrazol-1-yl]cyclobutyl}acetonitrile]",< 0.01 µM,>10
"C[C@H](NC(=O)c1cc(F)c(N2CC(CC#N)(n3cc(-c4ncnc5[nH]ccc45)cn3)C2)cc1F)C(F)(F)F [Compound 16, 4-{3-(cyanomethyl)-3-[4-(7H-pyrrolo[2,3-d]pyrimidin-4-yl)-1H-pyrazol-1-yl]azetidin-1-yl}-2,5-difluoro-N-[(1S)-2,2,2-trifluoro-1-methylethyl]benzamide]",< 0.01 µM,>10
"N#CCC1(n2cc(-c3ncnc4[nH]ccc34)cn2)CN([C@H]2CC[C@@H](Oc3cc(CCO)nc(C(F)(F)F)n3)CC2)C1 [Compound 18, {1-(cis-4-{[6-(2-hydroxyethyl)-2-(trifluoromethyl)pyrimidin-4-yl]oxy}cyclohexyl)-3-[4-(7H-pyrrolo[2,3-d]pyrimidin-4-yl)-1H-pyrazol-1-yl]azetidin-3-yl}acetonitrile]",< 0.01 µM,>10
"CCNCc1cc(O[C@H]2CC[C@@H](N3CC(CC#N)(n4cc(-c5ncnc6[nH]ccc56)cn4)C3)CC2)nc(C(F)(F)F)c1 [Compound 19, {1-(cis-4-{[4-[(ethylamino)methyl]-6-(trifluoromethyl)pyridin-2-yl]oxy}cyclohexyl)-3-[4-(7H-pyrrolo[2,3-d]pyrimidin-4-yl)-1H-pyrazol-1-yl]azetidin-3-yl}acetonitrile]",< 0.01 µM,>10
"CC(C)(O)c1cc(O[C@H]2CC[C@@H](N3CC(CC#N)(n4cc(-c5ncnc6[nH]ccc56)cn4)C3)CC2)nc(C(F)(F)F)c1 [Compound 20, {1-(cis-4-{[4-(1-hydroxy-1-methylethyl)-6-(trifluoromethyl)pyridin-2-yl]oxy}cyclohexyl)-3-[4-(7H-pyrrolo[2,3-d]pyrimidin-4-yl)-1H-pyrazol-1-yl]azetidin-3-yl}acetonitrile]",< 0.01 µM,>10
"N#CCC1(n2cc(-c3ncnc4[nH]ccc34)cn2)CN([C@H]2CC[C@@H](Oc3cc(CN4CC[C@@H](O)C4)cc(C(F)(F)F)n3)CC2)C1 [Compound 21, {1-(cis-4-{[4-{[(3R)-3-hydroxypyrrolidin-1-yl]methyl}-6-(trifluoromethyl)pyridin-2-yl]oxy}cyclohexyl)-3-[4-(7H-pyrrolo[2,3-d]pyrimidin-4-yl)-1H-pyrazol-1-yl]azetidin-3-yl}acetonitrile]",< 0.01 µM,>10
"N#CCC1(n2cc(-c3ncnc4[nH]ccc34)cn2)CN([C@H]2CC[C@@H](Oc3cc(CN4CC[C@H](O)C4)cc(C(F)(F)F)n3)CC2)C1 [Compound 22, {1-(cis-4-{[4-{[(3S)-3-hydroxypyrrolidin-1-yl]methyl}-6-(trifluoromethyl)pyridin-2-yl]oxy}cyclohexyl)-3-[4-(7H-pyrrolo[2,3-d]pyrimidin-4-yl)-1H-pyrazol-1-yl]azetidin-3-yl}acetonitrile]",< 0.01 µM,>10
"C[C@@H](CO)NCc1cc(OC2CCN([C@H]3C[C@](CC#N)(n4cc(-c5ncnc6[nH]ccc56)cn4)C3)CC2)nc(C(F)(F)F)c1 [Compound 23, {trans-3-(4-{[4-({[(1S)-2-hydroxy-1-methylethyl]amino}methyl)-6-(trifluoromethyl)pyridin-2-yl]oxy}piperidin-1-yl)-1-[4-(7H-pyrrolo[2,3-d]pyrimidin-4-yl)-1H-pyrazol-1-yl]cyclobutyl}acetonitrile]",< 0.01 µM,>10
"C[C@@H](O)CNCc1cc(OC2CCN([C@H]3C[C@](CC#N)(n4cc(-c5ncnc6[nH]ccc56)cn4)C3)CC2)nc(C(F)(F)F)c1 [Compound 24, {trans-3-(4-{[4-({[(2R)-2-hydroxypropyl]amino}methyl)-6-(trifluoromethyl)pyridin-2-yl]oxy}piperidin-1-yl)-1-[4-(7H-pyrrolo[2,3-d]pyrimidin-4-yl)-1H-pyrazol-1-yl]cyclobutyl}acetonitrile]",< 0.01 µM,>10
"C[C@H](O)CNCc1cc(OC2CCN([C@H]3C[C@](CC#N)(n4cc(-c5ncnc6[nH]ccc56)cn4)C3)CC2)nc(C(F)(F)F)c1 [Compound 25, {trans-3-(4-{[4-({[(2S)-2-hydroxypropyl]amino}methyl)-6-(trifluoromethyl)pyridin-2-yl]oxy}piperidin-1-yl)-1-[4-(7H-pyrrolo[2,3-d]pyrimidin-4-yl)-1H-pyrazol-1-yl]cyclobutyl}acetonitrile]",< 0.01 µM,>10
"N#CC[C@]1(n2cc(-c3ncnc4[nH]ccc34)cn2)C[C@H](N2CCC(Oc3cc(CCO)cc(C(F)(F)F)n3)CC2)C1 [Compound 26, {trans-3-(4-{[4-(2-hydroxyethyl)-6-(trifluoromethyl)pyridin-2-yl]oxy}piperidin-1-yl)-1-[4-(7H-pyrrolo[2,3-d]pyrimidin-4-yl)-1H-pyrazol-1-yl]cyclobutyl}acetonitrile]",< 0.01 µM,>10
